Test results taken from patent US12570655B2, “Cysteine covalent modifiers of AKT1 and uses thereof” (Terremoto Biosciences, Inc., priority 2023, dated 2026).
Read-outs that look alike come from different tables or passages of the source.

Tests used:
Assay type in all cases: cell-based
AKT1 WT = molecular target: T1, AKT1 WT (Homo sapiens, UniProt P31749); experiment: Live cell AKT1 WT target engagement by NanoBRET competitive probe displacement; conditions: HEK293 cells transfected with kinase-NanoLuciferase fusion, 2 h at 37° C.
T1 construct: expressed in transfected cells; host or cells: HEK293
Description: (§1) Determining Live Cell AKT1 E17K, AKT1 WT, and AKT2 Target Engagement by NanoBRET Competitive Probe Displacement.
(§2) Live cell target engagement assays were performed as described (Vasta, J. D. et al. Cell Chem Biol 2018, 25(11), 206-214). Briefly, HEK293 cells were transfected with plasmids encoding kinase-NanoLuciferase fusion proteins overnight. Cells were then treated with serial dilutions of compound and an ˜EC50 concentration of fluorescently-tagged ATP-competitive tracer (Promega). After incubation for 2 h at 37° C., luciferase substrate and extracellular luciferase inhibitor were added to all wells, and luminescent intensity at 460 nm and 600 nm were measured on a multimode plate-reader. The ratio of E600/E460 was calculated to give the tracer engagement signal (BRET). IC50 values were calculated by fitting BRET values to a log(inhibitor) vs. response Hill equation.

AKT1 E17K = molecular target: T2, AKT1 E17K (Homo sapiens, UniProt P31749, E17K); experiment: Live cell AKT1 E17K target engagement by NanoBRET competitive probe displacement; conditions: HEK293 cells transfected with kinase-NanoLuciferase fusion, 2 h at 37° C.
T2 construct: expressed in transfected cells; host or cells: HEK293
Description: as §1, §2

[1] = test system: LAPC4 prostate cancer cells; experiment: Antiproliferative effects in LAPC4 cells (CellTiter Glo); conditions: LAPC4 cells (AKT1 E17K allele), read-out: LAPC4 proliferation IC50
Description: Antiproliferative Effects in LAPC4 Cells.
LAPC4 prostate cancer cells (Klein, K. A. et al. Nat Med 1997, 3, 402-408), which express the AKT1 E17K allele, were grown in IMDM media (Hyclone) supplemented with 12% FBS+1% P/S. To assess compound effects on growth, 1,000 cells/well were seeded in 384 well assay plates, incubated with compound dilutions dissolved in DMSO. After 72 h, intracellular ATP content was assessed with CellTiter Glo reagent (Promega) according to the manufacturer's instructions. IC50 values were calculated by fitting luminescence values to a log(inhibitor) vs. response Hill equation.

T2 sequence (P31749 whole entry E17K, the tested form may be a part): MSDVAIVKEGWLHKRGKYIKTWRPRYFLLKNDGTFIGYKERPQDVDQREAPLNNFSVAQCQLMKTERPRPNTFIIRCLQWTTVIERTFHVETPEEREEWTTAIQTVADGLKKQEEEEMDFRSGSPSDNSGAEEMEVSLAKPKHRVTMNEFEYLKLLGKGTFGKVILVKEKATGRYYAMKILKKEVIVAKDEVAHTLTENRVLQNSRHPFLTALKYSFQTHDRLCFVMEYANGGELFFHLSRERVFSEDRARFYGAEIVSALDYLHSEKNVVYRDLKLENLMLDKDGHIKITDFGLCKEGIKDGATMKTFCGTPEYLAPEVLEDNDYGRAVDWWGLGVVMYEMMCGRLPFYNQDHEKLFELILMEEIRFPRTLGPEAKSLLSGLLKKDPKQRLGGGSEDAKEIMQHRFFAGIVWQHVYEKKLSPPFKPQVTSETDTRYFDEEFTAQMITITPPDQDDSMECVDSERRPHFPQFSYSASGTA
T1 sequence (P31749 whole entry, the tested form may be a part): as the sequence (P31749 whole entry E17K, the tested form may be a part) above, with K17E counted along it

Structure (SMILES): C=CC(=O)N1CCN(N(C)C2CCc3cc(-n4c(-c5cccnc5N)nc5ccc(-n6cccn6)nc54)ccc32)CC1 (single isomer, unassigned) [Example 179, 1-(4-{[(1*)-5-[2-(2-aminopyridin-3-yl)-5-(pyrazol-1-yl)imidazo[4,5-b]pyridin-3-yl]-2,3-dihydro-1H-inden-1-yl](methyl)amino}piperazin-1-yl)prop-2-en-1-one]
- IC50 (AKT1 WT): 2890 nM
- IC50 (AKT1 E17K): 203 nM
- IC50 ([1]; 72 h): 3520 nM

Structure (SMILES): C=CC(=O)N1C[C@H]2CCC[C@@H](C1)C2N[C@H]1CCc2cc(-n3c(-c4cccnc4N)nc4ccc(-n5cccn5)nc43)ccc21 (single isomer, unassigned) [Example 188, 1-((1R,5S,9*)-9-(((S)-5-(2-(2-aminopyridin-3-yl)-5-(1H-pyrazol-1-yl)-3H-imidazo[4,5-b]pyridin-3-yl)-2,3-dihydro-1H-inden-1-yl)amino)-3-azabicyclo[3.3.1]nonan-3-yl)prop-2-en-1-one]
- IC50 (AKT1 WT): 35 nM
- IC50 (AKT1 E17K): 5.65 nM
- IC50 ([1]; 72 h): 56.3 nM

Structure (SMILES): C=CC(=O)NC1CCN(C2CCc3cc(-n4c(-c5cccnc5N)nc5ccc(-n6cccn6)nc54)ccc32)CC1 (single isomer, unassigned) [Example 193, N-{1-[(1*)-5-[2-(2-aminopyridin-3-yl)-5-(pyrazol-1-yl)imidazo[4,5-b]pyridin-3-yl]-2,3-dihydro-1H-inden-1-yl]piperidin-4-yl}prop-2-enamide]
- IC50 (AKT1 WT): 71.5 nM
- IC50 (AKT1 E17K): 10.2 nM
- IC50 ([1]; Homo sapiens, LAPC4, 72 h): 58.4 nM

Structure (SMILES): C=CC(=O)N1CCC(N[C@H]2CCc3cc(-n4c(-c5cccnc5N)nc5ccc(-n6cccn6)nc54)ccc32)C[C@@H]1C(F)F (single isomer, unassigned) [Example 212, 1-((2R,4*)-4-(((S)-5-(2-(2-aminopyridin-3-yl)-5-(1H-pyrazol-1-yl)-3H-imidazo[4,5-b]pyridin-3-yl)-2,3-dihydro-1H-inden-1-yl)amino)-2-(difluoromethyl)piperidin-1-yl)prop-2-en-1-one]
- IC50 (AKT1 WT): 36.1 nM
- IC50 (AKT1 E17K): 6.9 nM
- IC50 ([1]; 72 h): 36.6 nM

Structure (SMILES): C=CC(=O)N1CCC(N[C@H]2CCc3cc(-n4c(-c5cccnc5N)nc5ccc(-n6cccn6)nc54)ccc32)C[C@@H]1C(F)F (single isomer, unassigned) [Example 213, 1-((2R,4*)-4-(((S)-5-(2-(2-aminopyridin-3-yl)-5-(1H-pyrazol-1-yl)-3H-imidazo[4,5-b]pyridin-3-yl)-2,3-dihydro-1H-inden-1-yl)amino)-2-(difluoromethyl)piperidin-1-yl)prop-2-en-1-one]
- IC50 (AKT1 WT): 13.8 nM
- IC50 (AKT1 E17K): 4.87 nM
- IC50 ([1]; 72 h): 9.69 nM

Structure (SMILES): C=CC(=O)N1CCC(N[C@H]2CCc3cc(-n4c(-c5cccnc5N)nc5ccc(-n6cccn6)nc54)ccc32)C[C@H]1C(F)F (single isomer, unassigned) [Example 214, 1-((2S,4*)-4-(((S)-5-(2-(2-aminopyridin-3-yl)-5-(1H-pyrazol-1-yl)-3H-imidazo[4,5-b]pyridin-3-yl)-2,3-dihydro-1H-inden-1-yl)amino)-2-(difluoromethyl)piperidin-1-yl)prop-2-en-1-one]
- IC50 (AKT1 WT): 36.5 nM
- IC50 (AKT1 E17K): 4.72 nM
- IC50 ([1]; Homo sapiens, LAPC4, 72 h): 26.7 nM

Structure (SMILES): C=CC(=O)N1CCN(CC2CCc3cc(-n4c(-c5cccnc5N)nc5ccc(-n6cccn6)nc54)ccc32)C[C@H]1C (single isomer, unassigned) [Example 292, 1-((R)-4-(((*)-5-(2-(2-aminopyridin-3-yl)-5-(1H-pyrazol-1-yl)-3H-imidazo[4,5-b]pyridin-3-yl)-2,3-dihydro-1H-inden-1-yl)methyl)-2-methylpiperazin-1-yl)prop-2-en-1-one]
- IC50 (AKT1 WT): 44.9 nM
- IC50 (AKT1 E17K): 6.85 nM
- IC50 ([1]; Homo sapiens, LAPC4, 72 h): 134 nM

Structure (SMILES): C=CC(=O)N1CCC(N[C@@H]2c3ccc(-n4c(-c5ccccc5F)nc5ccc(-n6cccn6)nc54)cc3CC2F)CC1 (single isomer, unassigned) [Example 299, 1-(4-(((1R,2*)-2-fluoro-5-(2-(2-fluorophenyl)-5-(1H-pyrazol-1-yl)-3H-imidazo[4,5-b]pyridin-3-yl)-2,3-dihydro-1H-inden-1-yl)amino)piperidin-1-yl)prop-2-en-1-one]
- IC50 (AKT1 WT): 1180 nM
- IC50 (AKT1 E17K): 9.32 nM
- IC50 ([1]; Homo sapiens, LAPC4, 72 h): 603 nM

Structure (SMILES): C=CC(=O)N1CCC(N[C@@H]2c3ccc(-n4c(-c5cccnc5N)nc5ccc(-n6cccn6)nc54)cc3CC2F)CC1C(F)F (single isomer, unassigned) [Example 301, 1-((2*,4*)-4-(((1R,2*)-5-(2-(2-aminopyridin-3-yl)-5-(1H-pyrazol-1-yl)-3H-imidazo[4,5-b]pyridin-3-yl)-2-fluoro-2,3-dihydro-1H-inden-1-yl)amino)-2-(difluoromethyl)piperidin-1-yl)prop-2-en-1-one]
- IC50 (AKT1 WT): 105 nM
- IC50 (AKT1 E17K): 8.86 nM
- IC50 ([1]; 72 h): 172 nM

Structure (SMILES): C=CC(=O)N1CCC(N[C@@H]2c3ccc(-n4c(-c5cccnc5N)nc5ccc(-n6cccn6)nc54)cc3CC2F)CC1C(F)F (single isomer, unassigned) [Example 303, 1-((2*,4*)-4-(((1R,2*)-5-(2-(2-aminopyridin-3-yl)-5-(1H-pyrazol-1-yl)-3H-imidazo[4,5-b]pyridin-3-yl)-2-fluoro-2,3-dihydro-1H-inden-1-yl)amino)-2-(difluoromethyl)piperidin-1-yl)prop-2-en-1-one]
- IC50 (AKT1 WT): 22.1 nM
- IC50 (AKT1 E17K): 10.9 nM
- IC50 ([1]; 72 h): 15.1 nM

Structure (SMILES): C=CC(=O)N1CCC(NC2c3ccc(-n4c(-c5cccnc5N)nc5ccc(-n6ccc(C7CC7)n6)nc54)cc3CC2F)CC1C(F)F (single isomer, unassigned) [Example 333, 1-((2*,4*)-4-(((1*,2*)-5-(2-(2-aminopyridin-3-yl)-5-(3-cyclopropyl-H-pyrazol-1-yl)-3H-imidazo[4,5-b]pyridin-3-yl)-2-fluoro-2,3-dihydro-1H-inden-1-yl)amino)-2-(difluoromethyl)piperidin-1-yl)prop-2-en-1-one]
- IC50 (AKT1 WT): 28.5 nM
- IC50 (AKT1 E17K): 4.33 nM

Structure (SMILES): C=CC(=O)N1CCC(N[C@H]2CCc3cc(-n4c(-c5cccnc5N)nc5ccc(-n6cccn6)nc54)ccc32)CC1CC#N (single isomer, unassigned) [Example 338, 2-((2*,4*)-1-acryloyl-4-(((S)-5-(2-(2-aminopyridin-3-yl)-5-(1H-pyrazol-1-yl)-3H-imidazo[4,5-b]pyridin-3-yl)-2,3-dihydro-1H-inden-1-yl)amino)piperidin-2-yl)acetonitrile]
- IC50 (AKT1 WT): 108 nM
- IC50 (AKT1 E17K): 12.3 nM

Structure (SMILES): C=CC(=O)N1C[C@@H]2[C@H](C1)[C@H]2NC1CCc2cc(-n3c(-c4cccnc4N)nc4ccc(-n5cccn5)nc43)ccc21 (single isomer, unassigned) [Example 346, 1-((1R,5S,6s)-6-(((*)-5-(2-(2-aminopyridin-3-yl)-5-(1H-pyrazol-1-yl)-3H-imidazo[4,5-b]pyridin-3-yl)-2,3-dihydro-1H-inden-1-yl)amino)-3-azabicyclo[3.1.0]hexan-3-yl)prop-2-en-1-one]
- IC50 (AKT1 WT): 2770 nM
- IC50 (AKT1 E17K): 444 nM

Structure (SMILES): C=CC(=O)N1C[C@@H]2[C@H](C1)[C@H]2NC1CCc2cc(-n3c(-c4cccnc4N)nc4ccc(-n5cccn5)nc43)ccc21 (single isomer, unassigned) [Example 347, 1-((1R,5S,6s)-6-(((*)-5-(2-(2-aminopyridin-3-yl)-5-(1H-pyrazol-1-yl)-3H-imidazo[4,5-b]pyridin-3-yl)-2,3-dihydro-1H-inden-1-yl)amino)-3-azabicyclo[3.1.0]hexan-3-yl)prop-2-en-1-one]
- IC50 (AKT1 WT): 2210 nM
- IC50 (AKT1 E17K): 234 nM

Structure (SMILES): C=CC(=O)N1CCC(NC2CCc3cc(-n4c(-c5cccnc5N)nc5ccc(C(F)F)nc54)ccc32)CC1 (stereo in doubt) [Example 196, 1-(4-{[(1R)-5-[2-(2-aminopyridin-3-yl)-5-(difluoromethyl)imidazo[4,5-b]pyridin-3-yl]-?3-dihydro-1H-inden-1-yl]amino}piperidin-1-yl)prop-2-en-1-one]
- IC50 (AKT1 WT): 1990 nM
- IC50 (AKT1 E17K): 96.6 nM
- IC50 ([1]; Homo sapiens, LAPC4, 72 h): 1210 nM

Structure (SMILES): C=CC(=O)N1CCC(N[C@H]2CCc3cc(-n4c(-c5cccnc5N)nc5ccc(N6CCCC6)nc54)ccc32)CC1 [Example 170, 1-(4-{[(1S)-5-[2-(2-aminopyridin-3-yl)-5-(pyrrolidin-1-yl)imidazo[4,5-b]pyridin-3-yl]-2,3-dihydro-1H-inden-1-yl]amino}piperidin-1-yl)prop-2-en-1-one]
- IC50 (AKT1 WT): 114 nM
- IC50 (AKT1 E17K): 12.5 nM
- IC50 ([1]; Homo sapiens, LAPC4, 72 h): 160 nM

Structure (SMILES): C=CC(=O)N1CCC(N[C@H]2CC(F)(F)c3cc(-n4c(-c5cccnc5N)nc5ccc(-n6cccn6)nc54)ccc32)CC1 [Example 305, (S)-1-(4-((5-(2-(2-aminopyridin-3-yl)-5-(1H-pyrazol-1-yl)-3H-imidazo[4,5-b]pyridin-3-yl)-3,3-difluoro-2,3-dihydro-1H-inden-1-yl)amino)piperidin-1-yl)prop-2-en-1-one]
- IC50 (AKT1 E17K): 63.4 nM
- IC50 ([1]; Homo sapiens, LAPC4, 72 h): 2740 nM
